Here are results for 6 compounds from ChEMBL document CHEMBL1124292, “Synthesis and evaluation of neoplastic cell growth inhibition of 1-N-alkylamide analogues of glycero-3-phosphocholine” (1988).

The test system of this assay is HL-60. Description: Inhibitory dose against HL60 human leukemic cells after incubation for 48 h. It is filed as functional. As to conditions: HL-60, 48 h, read-out: ID50 (the source's name).
For `CCCCCCCCCCCCCCCC(=O)NCC(COP(=O)([O-])OCC[N+](C)(C)C)OC` (stereo unspecified), the IC50 was determined as 3.32 µM.

For the compound `CCCCCCCCCCCCCCCC(=O)NCC(COP(=O)([O-])OCC[N+](C)(C)C)OCC` (stereo unspecified), the IC50 stood at 2.32 µM.

With `CCCCCCCCCCCCCCCCCC(=O)NCC(COP(=O)([O-])OCC[N+](C)(C)C)OC` (stereo unspecified), the IC50 turned out to be 2.45 µM.

Regarding `CCCCCCCCCCCCCCCC(=O)NCC(O)COP(=O)([O-])OCC[N+](C)(C)C` (stereo unspecified), the IC50 was > 10 µM.

`CCCCCCCCCCCCCCCCCC(=O)NCC(COP(=O)([O-])OCC[N+](C)(C)C)OCC` (stereo unspecified): the IC50 came to 1.64 µM.

Take `CCCCCCCCCCCCCCCCCCOCC(COP(=O)([O-])OCC[N+](C)(C)C)OC` (racemic) [EDELFOSINE]: the IC50 is 2.47 µM.
